Values of other authors in patent US20110195912A1, “Oligomer-Protease Inhibitor Conjugates” (Nektar Therapeutics, priority 2008, published 2011).
Where two headings read alike, the source gives them in different places.

Key:
HCV genotype 1 [1] = settings: 100-400 mg twice daily; patients with HCV genotype 1 that had failed pegIFN-α 2a therapy
HCV genotype 1 [2] = settings: 200 or 400 mg thrice daily, 14 days; non-responder patients with HCV genotype 1
[3] = monkey; twice daily oral dosing for seven days
HCV = settings: monotherapy, twice daily doses for 14 days
[4] = rat; twice daily oral dosing for seven days

SMILES | antiviral activity as a monotherapy (HCV genotype 1 [1]) | efficacy in combination with pegIFN-α2a (HCV genotype 1 [2]) | liver trough concentrations following the last dose [3] | viral RNA levels (HCV) | liver trough concentrations following the last dose [4]
CC(C)(C)NC(=O)N[C@H](C(=O)N1CC2[C@@H]([C@H]1C(=O)NC(CC1CCC1)C(=O)C(N)=O)C2(C)C)C(C)(C)C (some centres unmarked) [Boceprevir] | demonstrated antiviral activity | efficacious |  |  | 
CC(C)(C)OC(=O)N[C@H]1CCCCC/C=C\[C@@H]2C[C@@]2(C(=O)NS(=O)(=O)C2CC2)NC(=O)[C@@H]2C[C@@H](OC(=O)N3Cc4cccc(F)c4C3)CN2C1=O [ITMN-191] |  |  | in excess of in vitro EC90 values | rapid reduction in viral RNA levels | in excess of in vitro EC90 values
